# Test results: patent US20030187038A1, “Fibrinogen-lowering agents” (priority 2000, published 2003)
# System: plasma fibrinogen
# Experiment: Fibrinogen-lowering effect in spontaneously hypercholesterolemia (SHC) rats
# Type: in vivo, rat
# Experimental: Candesartan cilexetil (TCV-116; 0.5% methylcellulose 100 cp suspension; 1 mg/kg (2 ml/kg)) were administered orally to 10-week-old SHC rats once a day for a 6-week period. 0.5% methylcellulose 100 cp suspensions were administered to the control group (vehicle-treated group) in a volume of 2 ml/kg. Fibrinogen concentrations in plasma were measured as follows. At the end of experiments, the blood was withdrawn from aorta abdominalis into 3.8% trisodium citrate solution (Citral, Yamanouchi Pharmaceutical Co.,Ltd., final concentration of 0.38%) and the plasma were prepared by centrifuging at 3000 rpm at room temperature for 20 minutes. The fibrinogen concentration was determined using fibrinogen test RD (Roche Diagnostics) and the clot timer (B-10, Sarstedt, Inc.) with reference to a standard rat fibrinogen (F-6755, Sigma).
compound,measurement,setting,value
"CCOc1nc2cccc(C(=O)OC(C)OC(=O)OC3CCCCC3)c2n1Cc1ccc(-c2ccccc2-c2nnn[nH]2)cc1 (centres unmarked) [TCV-116, 1-(cyclohexyloxycarbonyloxy)ethyl 2-ethoxy-1-[[2′-(1H-tetrazol-5-yl)biphenyl-4-yl]methyl]-benzimidazole-7-carboxylate]",Fibrinogen level,"SHC rat plasma, 1 mg/kg/day orally once a day for 6 weeks, Mean ± SE, n = 5, p < 0.01 vs vehicle",354.0 ± 29.1 mg/dL
same,Effect on plasma fibrinogen level versus control group,"SHC rat, 1 mg/kg, comparison with vehicle-treated group",decreased the plasma fibrinogen level of SHC rat significantly
